Data as given in patent US20210395327A1, “Growth Hormone-Releasing Hormone Antagonists and Uses Thereof” (United States Government As Represented By The Department …, priority 2019, published 2021).
Like-named read-outs stand apart in the source and are kept apart here. Non-standard residues stand in square brackets, D forms with d. Residues, ends and D or L forms follow the SMILES beside them. *: point of attachment. Phe(F5) = N[C@@H](Cc1c(F)c(F)c(F)c(F)c1F)C(=O)O; Phe(4-Cl) = N[C@@H](Cc1ccc(Cl)cc1)C(=O)O; hArg = N=C(N)NCCCC[C@H](N)C(=O)O; 12Ado = NCCCCCCCCCCCC(=O)O; Nle = CCCC[C@H](N)C(=O)O; Orn = NCCC[C@H](N)C(=O)O; Abu = CC[C@H](N)C(=O)O; PhAc = O=C(Cc1ccccc1)*

What was measured:
[1] = test system: KATOIII stomach cancer cells; assay: In vitro cell viability, KATOIII; type: cell-based, human; conditions: antagonist 5 μM for 72 h, cell proliferation assay; MIA602 = 1
Description: (§1) The inhibitory effects of the various synthesized GHRH antagonists were tested in cell proliferation assays in various human cancer cell lines including stomach cancer (KATOIII, N87), colon cancer (HT-29), urothelial cancer (J82, RT4), pancreatic cancer (PANC-1, CFPAC-1), prostatic cancer (PC3), breast cancer (MX-1, HCC1806), ovarian cancer (SK-OV-3, OVCAR-3) and lung cancer (HCC827, H460).
(§2) Cell culture. Human cancer cell lines including pancreatic (PANC-1 and CFPAC-1), lung (HCC827 and H460), stomach (NCI-N87 and KATOIII), urothelial (J82, RT4), prostatic (PC3), breast (MX-1 and HCC 1806), colorectal (HT-29), and ovarian (SK-OV-3 and OVCAR-3) were obtained from the American Type Culture Collection (ATCC) and cultured at 37° C. in a humidified 95% air/5% CO2 atmosphere in the medium recommended by ATCC.
(§3) In vitro cell viability. Cell viability was analyzed as follows: cancer cells including pancreatic (PANC-1 and CFPAC-1), lung (HCC827 and H460), stomach (NCI-N87 and KATOIII), urothelial (J82, RT4), prostatic (PC3) and breast (MX-1 and HCC 1806), colorectal (HT-29) and ovarian (SK-OV-3 and OVCAR-3) were grown on 96 well plates to ˜60% confluence, the cells were starved for 24 h in culture medium containing 0.5% FBS. Cells were then treated with GHRH antagonists MIA602 AVR compounds at concentrations of 1, 2.5 or 5 μM, or vehicle (0.1% DMSO) in quintuplicates for 72 hours. The medium was replaced every 48 hours. Cell viability was measured using CellTiter 96 aqueous one solution kit (Promega). Inhibitory effects of tested AVR compounds in comparison to that of MIA602 are presented as inhibitory potency.
(§4) Inhibitory effects of selected AVR compounds in comparison to that of MIA602 are presented as inhibitory potency (e.g., percentage of inhibition). […] The cell lines tested including lung cancer HCC827 (FIG. 2A), pancreatic cancer CFPAC-1 (FIG. 2B), stomach cancer N87 (FIG. 2C), colon cancer HT-29 (FIG. 2D), breast cancers MX-1 and HCC1806 (FIGS. 2 E, F). Based on the results of cell proliferation assay after cancer cells were treated with antagonist at concentration of 5 μM for 72H, the relative inhibitory potency of AVR antagonists in comparison to MIA-602 is summarized in Table 3 A and B. Over 60 AVR compounds were tested in 12 cancer cell lines.

[2] = test system: CFPAC-1 pancreatic cancer cells; assay: In vitro cell viability, CFPAC-1; type: cell-based, human; conditions: antagonist 5 μM for 72 h, cell proliferation assay; MIA602 = 1
Description: as §1, §2, §3, §4
(§5) Based on the results of cell proliferation assay after cancer cells were treated with antagonist at concentration of 5 µM for 72H, * at concentration of 2 µM for 72 H.

[3] = test system: PANC-1 pancreatic cancer cells; assay: In vitro cell viability, PANC-1; type: cell-based, human; conditions: antagonist 5 μM for 72 h, cell proliferation assay; MIA602 = 1
Description: as §1, §2, §3, §4

[4] = test system: PC3 prostatic cancer cells; assay: In vitro cell viability, PC3; type: cell-based, human; conditions: antagonist 5 μM for 72 h, cell proliferation assay; MIA602 = 1
Description: as §1, §2, §3
(§6) Inhibitory effects of selected AVR compounds in comparison to that of MIA602 are presented as inhibitory potency (e.g., percentage of inhibition). […] The cell lines tested including lung cancer HCC827 (FIG. 2A), pancreatic cancer CFPAC-1 (FIG. 2B), stomach cancer N87 (FIG. 2C), colon cancer HT-29 (FIG. 2D), breast cancers MX-1 and HCC1806 (FIGS. 2 E, F). […]

[5] = test system: HCC1806 breast cancer cells; assay: In vitro cell viability, HCC1806; type: cell-based, human; conditions: antagonist 5 μM for 72 h, cell proliferation assay; MIA602 = 1
Description: as §1, §2, §3, §4, §5

MX-1 breast cancer cells = assay: In vitro cell viability, MX-1; type: cell-based, human; conditions: antagonist 5 μM for 72 h, cell proliferation assay; MIA602 = 1
Description: as §1, §2, §3, §4, §5

[6] = target: T1, membrane GHRH-receptors on human anterior pituitary cells (Homo sapiens, UniProt Q02643); assay: Receptor binding, displacement of 125I-[His1,Nle27]-hGH-RH(1-32)NH2 on human pituitary membranes
T1 construct: Human pituitary was purchased from the National Hormone and Peptide Program; tissue National Hormone and Peptide Program; host or cells: human pituitary (membrane fractions)
T1 sequence (Q02643 23-423): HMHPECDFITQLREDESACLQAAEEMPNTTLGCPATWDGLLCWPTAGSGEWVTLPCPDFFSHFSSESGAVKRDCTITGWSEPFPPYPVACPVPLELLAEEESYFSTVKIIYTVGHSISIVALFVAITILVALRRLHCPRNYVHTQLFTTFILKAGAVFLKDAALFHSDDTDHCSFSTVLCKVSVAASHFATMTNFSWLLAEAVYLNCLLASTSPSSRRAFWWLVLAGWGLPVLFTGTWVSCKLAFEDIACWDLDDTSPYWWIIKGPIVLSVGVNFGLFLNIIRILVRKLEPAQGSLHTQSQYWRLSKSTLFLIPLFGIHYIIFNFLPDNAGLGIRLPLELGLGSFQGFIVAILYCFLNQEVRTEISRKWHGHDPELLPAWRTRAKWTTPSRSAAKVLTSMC
Description: Receptor binding affinities in vitro. Preparation of human pituitary membrane fractions and receptor binding of analogs of GH-RH were performed (Halmos G, Rekasi Z, Szoke B, Schally A V. (1993) Receptor 3:87-97). Human pituitary was purchased from the National Hormone and Peptide Program. […] Relative affinities compared to hGH-RH(1-29)NH2 were calculated as the ratio of IC50 (dose causing 50% inhibition of specific binding to receptors) of the tested peptides to the IC50 of hGH-RH(1-29)NH2. The values were calculated from technical duplicate tubes.
Nineteen new AVR analogs of GHRH were tested in the receptor binding assay. Table 6 presents the IC50 values of GHRH antagonists to membrane GHRH-receptors binding on human anterior pituitary cells.

[7] = test system: NCI-N87 stomach cancer cells; assay: In vitro cell viability (CellTiter 96), N87; type: cell-based, human; conditions: antagonist 5 μM for 72 h, cell proliferation assay; MIA602 = 1
Description: as §1, §2, §3, §4, §5

HCC827 lung cancer cells = assay: In vitro cell viability, HCC827; type: cell-based, human; conditions: antagonist 5 μM for 72 h, cell proliferation assay; MIA602 = 1
Description: as §1, §2, §3, §4, §5

[8] = test system: J82 urothelial cancer cells; assay: In vitro cell viability, J82; type: cell-based, human; conditions: antagonist 5 μM for 72 h, cell proliferation assay; MIA602 = 1
Description: as §1, §2, §3, §4

[9] = test system: RT4 urothelial cancer cells; assay: In vitro cell viability, RT4; type: cell-based, human; conditions: antagonist 5 μM for 72 h, cell proliferation assay; MIA602 = 1
Description: as §1, §2, §3, §6

Row | Compound | relative inhibitory potency in comparison to MIA-602, Stomach KATOIII [1] | relative inhibitory potency in comparison to MIA-602, Pancreatic CFPAC-1 [2] | relative inhibitory potency in comparison to MIA-602, Pancreatic Panc-1 [3] | relative inhibitory potency in comparison to MIA-602, Prostatic PC3 [4] | relative inhibitory potency in comparison to MIA-602, Breast IICC1806 [5] | relative inhibitory potency in comparison to MIA-602, Breast MX-1 (MX-1 breast cancer cells) | IC50 [6] | relative inhibitory potency in comparison to MIA-602, Stomach N87 [7] | relative inhibitory potency in comparison to MIA-602, Lung IICC827 (HCC827 lung cancer cells) | relative inhibitory potency in comparison to MIA-602, Urothelial J82 [8] | relative inhibitory potency in comparison to MIA-602, Urothelial RT4 [9] | IC50 ([6]; membrane receptors on human anterior pituitary cells, mean of two to three determinations, read-out: IC50)
1 | CCCC[C@H](NC(=O)[C@@H](NC(=O)[C@H](CC(=O)O)NC(=O)[C@H](CCC(N)=O)NC(=O)[C@H](CC(C)C)NC(=O)[C@H](CC(C)C)NC(=O)[C@H](CCCCN)NC(=O)[C@H](CCCNC(=N)N)NC(=O)[C@H](C)NC(=O)[C@H](CO)NC(=O)[C@H](CC(C)C)NC(=O)[C@H](CCC(N)=O)NC(=O)[C@H](CC)NC(=O)[C@H](CC(C)C)NC(=O)[C@@H](NC(=O)[C@H](CCCCN)NC(=O)[C@H](CCCNC(=N)N)NC(=O)[C@H](Cc1ccc(O)cc1)NC(=O)[C@H](CCCNC(=N)N)NC(=O)[C@H](C)NC(=O)[C@@H](NC(=O)[C@H](Cc1ccc(Cl)cc1)NC(=O)[C@@H](NC(=O)[C@H](C)NC(=O)[C@H](CC(=O)O)NC(=O)[C@@H](CCCNC(=N)N)NC(=O)[C@H](Cc1ccc(O)cc1)NC(=O)CCCCCCCCCCCNC(=O)Cc1ccccc1)[C@@H](C)CC)[C@@H](C)O)C(C)C)[C@@H](C)CC)C(=O)N[C@H](CCCNC(=N)N)C(=O)N[C@@H](CCCCNC(=N)N)C(N)=O [AVR-107, PhAC-Ada-Tyr-DArg-Asp-Ala-Ile-Cpa-Thr-Ala-Arg-Tyr-Arg-Lys-Val-Leu-Abu-Gln-Leu-Ser-Ala-Arg-Lys-Leu-Leu-Gln-Asp-Ile-Nle-DArg-Har-NH2] ({PhAc-12Ado}-Y[dR]DAI[Phe(4-Cl)]TARYRKVL[Abu]QLSARKLLQDI[Nle][dR][hArg]-NH2) | 1.295 | 1.080 | 1.160 | 0.800 | 0.950 | 1.010 | 0.61 nM |  |  |  |  | 
2 | CCCC[C@H](NC(=O)[C@@H](NC(=O)[C@H](CC(=O)O)NC(=O)[C@H](CCC(N)=O)NC(=O)[C@H](CC(C)C)NC(=O)[C@H](CC(C)C)NC(=O)[C@H](CCCN)NC(=O)[C@H](Cc1c[nH]cn1)NC(=O)[C@H](C)NC(=O)[C@H](CO)NC(=O)[C@H](CC(C)C)NC(=O)[C@H](CCC(N)=O)NC(=O)[C@H](CC)NC(=O)[C@H](CC(C)C)NC(=O)[C@@H](NC(=O)[C@H](CCCCN)NC(=O)[C@H](CCCNC(=N)N)NC(=O)[C@H](Cc1ccc(OC)cc1)NC(=O)[C@H](CCCNC(=N)N)NC(=O)[C@H](C)NC(=O)[C@@H](NC(=O)[C@H](Cc1ccc(Cl)cc1)NC(=O)[C@@H](NC(=O)[C@H](C)NC(=O)[C@H](CC(=O)O)NC(=O)[C@@H](CCCNC(=N)N)NC(=O)[C@H](Cc1ccc(O)cc1)NC(=O)CCCCCCCCCCCNC(=O)[C@H](N)Cc1ccccc1)[C@@H](C)CC)[C@@H](C)O)C(C)C)[C@@H](C)CC)C(=O)N[C@H](CCCNC(=N)N)C(=O)N[C@@H](CCCCNC(=N)N)C(N)=O [AVR-120, D-Phe-Ada-Tyr-DArg-Asp-Ala-Ile-Cpa-Thr-Ala-Arg-Tyr(Me)-Arg-Lys-Val-Leu-Abu-Gln-Leu-Ser-Ala-His-Orn-Leu-Leu-Gln-Asp-Ile-Nle-DArg-Har-NH2] (H-[dF][12Ado]Y[dR]DAI[Phe(4-Cl)]TARY(Me)RKVL[Abu]QLSAH[Orn]LLQDI[Nle][dR][hArg]-NH2) | 1.271 | 1.617 | 1.306 |  |  |  |  | 2.339 | 1.423 | 4.841 | 1.611 | 0.48 nM
3 | CCCC[C@H](NC(=O)[C@@H](NC(=O)[C@H](CC(=O)O)NC(=O)[C@H](CCC(N)=O)NC(=O)[C@H](CC(C)C)NC(=O)[C@H](CC(C)C)NC(=O)[C@H](CCCN)NC(=O)[C@H](Cc1c[nH]cn1)NC(=O)[C@H](C)NC(=O)[C@H](CO)NC(=O)[C@H](CC(C)C)NC(=O)[C@H](CCC(N)=O)NC(=O)[C@H](CC)NC(=O)[C@H](CC(C)C)NC(=O)[C@@H](NC(=O)[C@H](CCCCN)NC(=O)[C@H](CCCNC(=N)N)NC(=O)[C@H](Cc1c(F)c(F)c(F)c(F)c1F)NC(=O)[C@H](CCCNC(=N)N)NC(=O)[C@H](C)NC(=O)[C@@H](NC(=O)[C@H](Cc1ccc(Cl)cc1)NC(=O)[C@@H](NC(=O)[C@H](C)NC(=O)[C@H](CC(=O)O)NC(=O)[C@@H](CCCNC(=N)N)NC(=O)[C@H](Cc1ccc(O)cc1)NC(=O)CCCCCCCCCCCNC(=O)Cc1ccccc1)[C@@H](C)CC)[C@@H](C)O)C(C)C)[C@@H](C)CC)C(=O)N[C@H](CCCNC(=N)N)C(=O)N[C@@H](CCCCNC(=N)N)C(N)=O [AVR-116, PhAC-Ada-Tyr-DArg-Asp-Ala-Ile-Cpa-Thr-Ala-Arg-5FPhe-Arg-Lys-Val-Leu-Abu-Gln-Leu-Ser-Ala-His-Orn-Leu-Leu-Gln-Asp-Ile-Nle-DArg-Har-NH2] ({PhAc-12Ado}-Y[dR]DAI[Phe(4-Cl)]TAR[Phe(F5)]RKVL[Abu]QLSAH[Orn]LLQDI[Nle][dR][hArg]-NH2) | 1.202 | 1.445 | 1.208 |  |  |  | 0.5 nM | 2.484 | 2.470 | 3.034 |  | 
